Laboratory results from patent US20250188059A1, “NOVEL COMPOUND AND USE THEREOF FOR INHIBITING CHECKPOINT KINASE 2” (ARUM THERAPEUTICS INC, priority 2022, published 2025).
pIC50: −log10 of the molar value. Like-named read-outs stand apart in the source and are kept apart here.

Columns and labels:
[1] = test system: human breast cancer cell line MCF-7; assay: Cancer cell growth inhibition test (CellTiter-Glo); assay type: cell-based; details: MCF-7, 72 hours
Procedure: The human breast cancer cell line MCF-7 was treated with trypsin and harvested. The number of cells was counted, and about 3000 cells/80 μl per well were inoculated into a 96 well plate (Corning) and then incubated in a 37° C. incubator for 24 hours. Thereafter, the example compounds were diluted in a culture solution at various concentrations, and each well was treated with 20 μl and stored in a cell culture incubator for 72 hours. In the case of the group administered in combination, the example compounds and cisplatin or doxorubicin were diluted in a culture solution at various concentrations, and each well was treated with 20 μl. After 72 hours, each well was treated with 30 μl of CellTiter-Glo solution (Promega), and the luminescence was read on a Victor3 multi label reader (PerkinElmer).
Relative viability (%)=(value of each test well/value of well treated with DMSO alone)×100
The results obtained for each concentration for each example compound were the average values obtained from three wells, and PRIZM software was used for analysis of the results.

Chk2 kinase = Chk2 kinase (Homo sapiens (Human), UniProt O96017); assay: Chk2 kinase inhibitory activity (LanthaScreen TR-FRET); assay type: biochemical; details: graded
Sequence of Chk2 kinase (O96017 whole entry): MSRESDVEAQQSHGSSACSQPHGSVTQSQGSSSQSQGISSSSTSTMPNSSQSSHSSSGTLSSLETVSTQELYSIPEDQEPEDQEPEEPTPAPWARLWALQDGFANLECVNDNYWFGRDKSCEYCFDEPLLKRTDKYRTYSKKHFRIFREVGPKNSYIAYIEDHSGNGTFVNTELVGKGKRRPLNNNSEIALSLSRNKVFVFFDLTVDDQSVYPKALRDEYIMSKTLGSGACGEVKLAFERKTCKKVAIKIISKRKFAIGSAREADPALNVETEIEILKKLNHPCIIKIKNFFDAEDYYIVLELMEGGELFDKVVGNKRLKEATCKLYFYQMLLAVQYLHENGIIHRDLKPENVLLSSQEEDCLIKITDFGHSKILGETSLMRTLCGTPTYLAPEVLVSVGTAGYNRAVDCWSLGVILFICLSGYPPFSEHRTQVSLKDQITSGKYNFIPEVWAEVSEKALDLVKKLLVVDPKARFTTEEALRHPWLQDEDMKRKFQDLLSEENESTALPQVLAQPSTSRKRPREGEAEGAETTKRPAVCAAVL
Procedure: (§1) The compounds of Examples 1 to 66 were diluted at various concentrations and transferred to a 384-well plate by 5 μl, and 10 μl of a mixed solution (2×) of Chk1 kinase (Thermo, P3040) or Chk2 kinase (Thermo, PV3367) and a substrate (Thermo, PV3508) was added to wells treated with the compounds. 5 μl of an ATP solution at a 4× concentration was added to the test well and reacted at room temperature for 1 hour. 20 μl of LanthaScreen Terbium-CREB p-Ser 133 antibody (Thermo, PV3542) was added to the reaction well and incubated at room temperature for 30 minutes. Conversion data was measured by an EnVision 2014 multi label reader (PerkinElmer). The activity for each concentration was determined by the ratio (FRET ratio=FR) of the value obtained by dividing the value at 520 nm by the value at 490 nm among the emission wavelength values for each wavelength (Em520/Em490). The results obtained for each concentration of the compounds were the average values obtained in two wells, and the IC50 values of the compounds were calculated using PRIZM software for analysis of the results. IC50 in Table 7 was graded as follows.

Chk1 kinase = Chk1 kinase (Homo sapiens (Human), UniProt O14757); assay: Chk1 kinase inhibitory activity (LanthaScreen TR-FRET); assay type: biochemical; details: graded
Sequence of Chk1 kinase (O14757 whole entry): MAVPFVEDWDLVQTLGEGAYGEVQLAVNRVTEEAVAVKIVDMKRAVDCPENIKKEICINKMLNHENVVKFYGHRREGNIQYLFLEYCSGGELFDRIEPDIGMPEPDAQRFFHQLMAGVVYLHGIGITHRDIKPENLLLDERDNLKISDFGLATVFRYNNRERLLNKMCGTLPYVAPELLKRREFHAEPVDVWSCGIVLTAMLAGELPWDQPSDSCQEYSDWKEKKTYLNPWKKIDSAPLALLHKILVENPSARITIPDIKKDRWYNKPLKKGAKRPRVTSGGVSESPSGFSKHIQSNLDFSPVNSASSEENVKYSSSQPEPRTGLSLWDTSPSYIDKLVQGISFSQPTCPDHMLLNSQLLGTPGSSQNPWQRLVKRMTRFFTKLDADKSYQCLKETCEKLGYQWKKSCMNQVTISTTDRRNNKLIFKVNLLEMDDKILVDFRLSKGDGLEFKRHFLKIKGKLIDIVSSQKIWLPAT
Procedure: as §1

[2] = Homo sapiens, MCF7, 72 h, graded, read-out: Celltiter glo analysis (IC50)

pIC50 [1, 2]	pIC50 (Chk2 kinase)	pIC50 (Chk1 kinase)	pIC50 ([1]; graded, read-out: Celltiter glo analysis (IC50))	pIC50 ([1]; Homo sapiens, MCF7, 72 h, alone, read-out: Administered alone (IC50))	pIC50 ([1]; combination with cisplatin, read-out: Administered in combination with cisplatin (IC50))	pIC50 ([1]; combination with doxorubicin, read-out: Administered in combination with doxorubicin (IC50))	Structure (SMILES)
4.00 to 5.00	< 6.00	< 6.00					CC(C)(O)Cn1cc(-c2ccc(F)c(-c3cnc(N)c(C(=O)N[C@@H]4CNCC(F)(F)C4)n3)c2)cn1 [Example 36, (S)-3-amino-N-(5,5-difluoropiperidin-3-yl)-6-(2-fluoro-5-(1-(2-hydroxy-2-methylpropyl)-1H-pyrazol-4-yl)phenyl)pyrazine-2-carboxamide]
	7.00 to 8.00	7.00 to 8.00	< 4.00				CC1(C)Cc2c(-c3cccc(-c4cnc(N)c(C(=O)N[C@H]5CCC6(CC6)NC5)n4)c3)cnn2C1 (stereo in doubt) [Example 65, 3-amino-6-(3-(5,5-dimethyl-5,6-dihydro-4H-pyrrolo[1,2-b]pyrazol-3-yl)phenyl)-N-(4-azaspiro[2.5]octan-6-yl)pyrazine-2-carboxamide]
4.00 to 5.00	≥ 8.00	6.00 to 7.00					CC1(C)Cc2c(-c3cccc(-c4cnc(N)c(C(=O)N[C@@H]5CNC[C@@H](F)C5)n4)c3)cnn2C1 [Example 45, 3-amino-6-(3-(5,5-dimethyl-5,6-dihydro-4H-pyrrolo[1,2-b]pyrazol-3-yl)phenyl)-N-((3S,5S)-5-fluoropiperidin-3-yl)pyrazine-2-carboxamide]
4.00 to 5.00	≥ 8.00	6.00 to 7.00					CC1(C)Cc2c(-c3ccc(F)c(-c4cnc(N)c(C(=O)N[C@H]5CCCNC5)n4)c3)cnn2C1 [Example 43, (S)-3-amino-6-(5-(5,5-dimethyl-5,6-dihydro-4H-pyrrolo[1,2-b]pyrazol-3-yl)-2-fluorophenyl)-N-(piperidin-3-yl)pyrazine-2-carboxamide]
4.00 to 5.00	≥ 8.00	6.00 to 7.00					Nc1ncc(-c2nccc(-c3cnn(CC(F)(F)F)c3)n2)nc1C(=O)N[C@H]1CCCNC1 [Example 39, (S)-3-amino-N-(piperidin-3-yl)-6-(4-(1-(2,2,2-trifluoroethy)-1H-pyrazol-4-yl)pyrimidin-2-yl)pyrazine-2-carboxamide]
4.00 to 5.00	7.00 to 8.00	< 6.00					CC1(C)Cc2c(-c3ccc(F)c(-c4cnc(N)c(C(=O)N[C@H]5CCC6(CC6)NC5)n4)c3)cnn2C1 [Example 46, (S)-3-amino-6-(5-(5,5-dimethyl-5,6-dihydro-4H-pyrrolo[1,2-b]pyrazol-3-yl)-2-fluorophenyl)-N-(4-azaspiro[2.5]octan-6-yl)pyrazine-2-carboxamide]
4.00 to 5.00	7.00 to 8.00	< 6.00					CC(C)(O)Cn1cc(-c2ccc(F)c(-c3cnc(N)c(C(=O)N[C@@H]4CNC[C@@H](F)C4)n3)c2)cn1 [Example 35, 3-amino-6-(2-fluoro-5-(1-(2-hydroxy-2-methylpropyl)-1H-pyrazol-4-yl)phenyl)-N-((3S,5S)-5-fluoropiperidin-3-yl)pyrazine-2-carboxamide]
< 4.00	7.00 to 8.00	< 6.00					Cc1ccc(-c2cnn(CC(C)(C)O)c2)cc1-c1cnc(N)c(C(=O)N[C@@H]2CNC[C@@H](F)C2)n1 [Example 37, 3-amino-N-((3S,5S)-5-fluoropiperidin-3-yl)-6-(5-(1-(2-hydroxy-2-methylpropyl)-1H-pyrazol-4-yl)-2-methylphenyl) pyrazine-2-carboxamide]
< 4.00	≥ 8.00	7.00 to 8.00					Cn1cc(-c2cccc(-c3cnc(N)c(C(=O)NC4CCC5(CC5)NC4)n3)c2)cn1 (racemic) [Example 41, 3-amino-6-(3-(1-methyl-1H-pyrazol-4-yl)phenyl)-N-(4-azaspiro[2.5]octan-6-yl)pyrazine-2-carboxamide]

Further lines, the compound ahead of its results:

Structure (SMILES)	pIC50 [1, 2]	pIC50 (Chk2 kinase)	pIC50 (Chk1 kinase)	pIC50 ([1]; graded, read-out: Celltiter glo analysis (IC50))	pIC50 ([1]; Homo sapiens, MCF7, 72 h, alone, read-out: Administered alone (IC50))	pIC50 ([1]; combination with cisplatin, read-out: Administered in combination with cisplatin (IC50))	pIC50 ([1]; combination with doxorubicin, read-out: Administered in combination with doxorubicin (IC50))
Cn1cc(-c2cccc(-c3cnc(N)c(C(=O)N[C@H]4CCCNC4)n3)c2)cn1 [Example 16, (S)-3-amino-6-(3-(1-methyl-1H-pyrazol-4-yl)phenyl)-N-(piperidin-3-yl)pyrazine-2-carboxamide]	4.00 to 5.00	≥ 8.00	7.00 to 8.00				
Cn1cc(-c2cccc(-c3cnc(N)c(C(=O)N[C@@H]4CNC[C@@H](F)C4)n3)c2)cn1 [Example 17, 3-amino-N-((3S,5S)-5-fluoropiperidin-3-yl)-6-(3-(1-methyl-1H-pyrazol-4-yl)phenyl)pyrazine-2-carboxamide]	4.00 to 5.00	≥ 8.00	7.00 to 8.00				
Nc1ncc(-c2ccnc(-c3cnn(CC(F)(F)F)c3)c2)nc1C(=O)N[C@H]1CCCNC1 [Example 21, (S)-3-amino-N-(piperidin-3-yl)-6-(2-(1-(2,2,2-trifluoroethyl)-1H-pyrazol-4-yl)pyridin-4-yl)pyrazine-2-carboxamide]	4.00 to 5.00	≥ 8.00	7.00 to 8.00				
Nc1ncc(-c2ccnc(-c3cnn(CC(F)(F)F)c3)c2)nc1C(=O)N[C@@H]1CNCC[C@H]1O [Example 14, 3-amino-N-((3R,4R)-4-hydroxypiperidin-3-yl)-6-(2-(1-(2,2,2-trifluoroethyl)-1H-pyrazol-4-yl)pyridin-4-yl)pyrazine-2-carboxamide]	< 4.00	7.00 to 8.00	6.00 to 7.00				
Nc1ncc(-c2ccnc(-c3cnn(C4CC4)c3)c2)nc1C(=O)N[C@H]1CCCNC1 [Example 20, (S)-3-amino-6-(2-(1-cyclopropyl-1H-pyrazol-4-yl)pyridin-4-yl)-N-(piperidin-3-yl)pyrazine-2-carboxamide]	4.00 to 5.00	7.00 to 8.00	7.00 to 8.00				
CC(C)(O)Cn1cc(-c2cc(-c3cnc(N)c(C(=O)N[C@@H]4CNCC(F)(F)C4)n3)c(F)cn2)cn1 [Example 32, (S)-3-amino-N-(5,5-difluoropiperidin-3-yl)-6-(5-fluoro-2-(1-(2-hydroxy-2-methylpropyl)-1H-pyrazol-4-yl)pyridin-4-yl)pyrazine-2-carboxamide]	4.00 to 5.00	< 6.00	< 6.00		4.48	5.34	6.04
N#CCn1cc(-c2cccc(-c3cnc(N)c(C(=O)N[C@H]4CCCNC4)n3)c2)cn1 [Example 27, (S)-3-amino-6-(3-(1-(cyanomethyl)-1H-pyrazol-4-yl)phenyl)-N-(piperidin-3-yl)pyrazine-2-carboxamide]	< 4.00	7.00 to 8.00	7.00 to 8.00				
CC(C)(O)Cn1cc(-c2cccc(-c3cnc(N)c(C(=O)N[C@H]4CCCNC4)n3)c2)cn1 [Example 30, (S)-3-amino-6-(3-(1-(2-hydroxy-2-methylpropyl)-1H-pyrazol-4-yl)phenyl)-N-(piperidin-3-yl)pyrazine-2-carboxamide]	< 4.00	≥ 8.00	7.00 to 8.00				
Cn1cc(-c2ccc(F)c(-c3cnc(N)c(C(=O)N[C@@H]4CNC[C@@H](F)C4)n3)c2)cn1 [Example 19, 3-amino-6-(2-fluoro-5-(1-methyl-1H-pyrazol-4-yl)phenyl)-N-((3S,5S)-5-fluoropiperidin-3-yl) pyrazine-2-carboxamide]	4.00 to 5.00	7.00 to 8.00	6.00 to 7.00				
N#CCn1cc(-c2cccc(-c3cnc(N)c(C(=O)N[C@@H]4CNC[C@@H](F)C4)n3)c2)cn1 [Example 26, 3-amino-6-(3-(1-(cyanomethyl)-1H-pyrazol-4-yl)phenyl)-N-((3S,5S)-5-fluoropiperidin-3-yl) pyrazine-2-carboxamide]	< 4.00	7.00 to 8.00	6.00 to 7.00				
Cn1cc(-c2ccc(F)c(-c3cnc(N)c(C(=O)N[C@H]4CCCNC4)n3)c2)cn1 [Example 18, (S)-3-amino-6-(2-fluoro-5-(1-methyl-1H-pyrazol-4-yl)phenyl)-N-(piperidin-3-yl)pyrazine-2-carboxamide]	4.00 to 5.00	7.00 to 8.00	< 6.00				
CC(C)(O)Cn1cc(-c2cccc(-c3cnc(N)c(C(=O)N[C@@H]4CNC[C@@H](F)C4)n3)c2)cn1 [Example 29, 3-amino-N-((3S,5S)-5-fluoropiperidin-3-yl)-6-(3-(1-(2-hydroxy-2-methylpropyl)-1H-pyrazol-4-yl)phenyl)pyrazine-2-carboxamide]	4.00 to 5.00	≥ 8.00	7.00 to 8.00				
CC(C)(O)Cn1cc(-c2cc(-c3cnc(N)c(C(=O)N[C@@H]4CNCC(F)(F)C4)n3)ccn2)cn1 [Example 33, (S)-3-amino-N-(5,5-difluoropiperidin-3-yl)-6-(2-(1-(2-hydroxy-2-methylpropyl)-1H-pyrazol-4-yl)pyridin-4-yl)pyrazine-2-carboxamide]	4.00 to 5.00	6.00 to 7.00	< 6.00				
